What all share (test): relative viability (nuclei count vs DMSO), 5 days (fraction); higher = more cells survive
Compound in the test “Wnt-C59 + Foretinib”: CC1=NC=CC(=C1)C2=CC=C(C=C2)CC(=O)NC3=CC=C(C=C3)C4=CN=CC=C4 [Wnt-C59] + COc1cc2c(Oc3ccc(NC(=O)C4(C(=O)Nc5ccc(F)cc5)CC4)cc3F)ccnc2cc1OCCCN1CCOCC1 [Foretinib] (partner 0.25 µM)
Put shortly:
(§1)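 Lung cancer cell lines were seeded in 1536-well plates and dosed by pin tool the next day, with either a single drug or a fixed anchor-drug dose combined with five library-drug doses (not always all listed) spaced in √10 steps. Five days later, one step fixed the cells and stained their nuclei (final 0.05% Triton X-100, 1% formaldehyde, 1 ug/ml Hoechst), and nuclei were counted on 4× images. Relative viability is the nuclei count in treated wells divided by the count in vehicle wells, and each value is the median of duplicate plates.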

Compound in the test “Wnt-C59 + Linsitinib”: CC1=NC=CC(=C1)C2=CC=C(C=C2)CC(=O)NC3=CC=C(C=C3)C4=CN=CC=C4 [Wnt-C59] + C[C@]1(O)C[C@@H](c2nc(-c3ccc4ccc(-c5ccccc5)nc4c3)c3c(N)nccn32)C1 [Linsitinib] (partner 1 µM)
Put shortly:
as §1

Compound in the test “Wnt-C59 + Decitabine”: CC1=NC=CC(=C1)C2=CC=C(C=C2)CC(=O)NC3=CC=C(C=C3)C4=CN=CC=C4 [Wnt-C59] + Nc1ncn([C@H]2C[C@H](O)[C@@H](CO)O2)c(=O)n1 [Decitabine] (partner 2 µM)
Put shortly:
as §1

Compound in the test “Lapatinib + Pictilisib”: CS(=O)(=O)CCNCc1ccc(-c2ccc3ncnc(Nc4ccc(OCc5cccc(F)c5)c(Cl)c4)c3c2)o1 [Lapatinib] + CS(=O)(=O)N1CCN(Cc2cc3nc(-c4cccc5[nH]ncc45)nc(N4CCOCC4)c3s2)CC1 [Pictilisib] (partner 1 µM)
Put shortly:
as §1

Take NCI-H596: the relative viability amounted to 0.885 with Wnt-C59 + Foretinib (first compound 0.001 µM); 0.899 in the test with Wnt-C59 + Foretinib (first compound 0.01 µM); 0.835 with Wnt-C59 + Foretinib (first compound 0.03162 µM); 0.898 with Wnt-C59 + Foretinib (first compound 0.1 µM); 1.04 with Wnt-C59 + Linsitinib (first compound 0.001 µM); 0.954 with Wnt-C59 + Linsitinib (first compound 0.01 µM). Besides, the relative viability worked out at 1.16 in the test with Wnt-C59 + Linsitinib (first compound 0.03162 µM); 1.1 with Wnt-C59 + Linsitinib (first compound 0.1 µM); 0.996 in the test with Wnt-C59 + Decitabine (first compound 0.001 µM); 0.918 with Wnt-C59 + Decitabine (first compound 0.01 µM); 1.07 in the test with Wnt-C59 + Decitabine (first compound 0.03162 µM); 1.42 with Wnt-C59 + Decitabine (first compound 0.1 µM). Moreover, the relative viability in the test with Lapatinib + Pictilisib (first compound 0.02 µM) worked out at 0.39; with Lapatinib + Pictilisib (first compound 0.06325 µM), 0.388; with Lapatinib + Pictilisib (first compound 0.2 µM), 0.4; with Lapatinib + Pictilisib (first compound 0.6325 µM), 0.415; in the test with Lapatinib + Pictilisib (first compound 2 µM), 0.407.

Turning to SW 1573, the relative viability in the test with Wnt-C59 + Foretinib (first compound 0.001 µM) amounted to 1.13; with Wnt-C59 + Foretinib (first compound 0.01 µM), 1.03; with Wnt-C59 + Foretinib (first compound 0.03162 µM) it was 0.879; with Wnt-C59 + Foretinib (first compound 0.1 µM) it was 0.784; with Wnt-C59 + Linsitinib (first compound 0.001 µM) it was 0.696; with Wnt-C59 + Linsitinib (first compound 0.01 µM) it was 0.806. The relative viability with Wnt-C59 + Linsitinib (first compound 0.03162 µM) came out at 0.874; with Wnt-C59 + Linsitinib (first compound 0.1 µM), 0.862; in the test with Wnt-C59 + Decitabine (first compound 0.001 µM), 0.449; in the test with Wnt-C59 + Decitabine (first compound 0.01 µM), 0.453; in the test with Wnt-C59 + Decitabine (first compound 0.03162 µM), 0.583; with Wnt-C59 + Decitabine (first compound 0.1 µM), 0.537. The relative viability stood at 0.471 in the test with Lapatinib + Pictilisib (first compound 0.02 µM); 0.444 with Lapatinib + Pictilisib (first compound 0.06325 µM); 0.61 with Lapatinib + Pictilisib (first compound 0.2 µM); 0.452 with Lapatinib + Pictilisib (first compound 0.6325 µM); 0.533 in the test with Lapatinib + Pictilisib (first compound 2 µM).

For RERF-LC-KJ, the relative viability was found to be 0.889 with Wnt-C59 + Foretinib (first compound 0.001 µM); 0.832 with Wnt-C59 + Foretinib (first compound 0.01 µM); 0.915 with Wnt-C59 + Foretinib (first compound 0.03162 µM); 0.926 in the test with Wnt-C59 + Foretinib (first compound 0.1 µM); 0.914 with Wnt-C59 + Linsitinib (first compound 0.001 µM); 0.79 with Wnt-C59 + Linsitinib (first compound 0.01 µM). The relative viability is 0.908 with Wnt-C59 + Linsitinib (first compound 0.03162 µM); 0.85 in the test with Wnt-C59 + Linsitinib (first compound 0.1 µM); 0.711 with Wnt-C59 + Decitabine (first compound 0.001 µM); 0.727 in the test with Wnt-C59 + Decitabine (first compound 0.01 µM); 0.742 in the test with Wnt-C59 + Decitabine (first compound 0.03162 µM); 0.735 in the test with Wnt-C59 + Decitabine (first compound 0.1 µM). The relative viability stood at 0.472 with Lapatinib + Pictilisib (first compound 0.02 µM); 0.907 in the test with Lapatinib + Pictilisib (first compound 0.06325 µM); 0.595 with Lapatinib + Pictilisib (first compound 0.2 µM); 0.438 in the test with Lapatinib + Pictilisib (first compound 0.6325 µM); 0.325 with Lapatinib + Pictilisib (first compound 2 µM).

For NCI-H1651, the relative viability was found to be 0.985 in the test with Wnt-C59 + Foretinib (first compound 0.001 µM); 0.734 with Wnt-C59 + Foretinib (first compound 0.01 µM); 0.858 with Wnt-C59 + Foretinib (first compound 0.03162 µM); 0.758 with Wnt-C59 + Foretinib (first compound 0.1 µM); 1 with Wnt-C59 + Linsitinib (first compound 0.001 µM); 0.9 with Wnt-C59 + Linsitinib (first compound 0.01 µM). Further, the relative viability with Wnt-C59 + Linsitinib (first compound 0.03162 µM) amounted to 1.02; with Wnt-C59 + Linsitinib (first compound 0.1 µM), 0.852; with Wnt-C59 + Decitabine (first compound 0.001 µM), 0.671; with Wnt-C59 + Decitabine (first compound 0.01 µM), 0.675; with Wnt-C59 + Decitabine (first compound 0.03162 µM), 0.613; in the test with Wnt-C59 + Decitabine (first compound 0.1 µM) it was 0.597. Besides, the relative viability with Lapatinib + Pictilisib (first compound 0.02 µM) stood at 0.561; in the test with Lapatinib + Pictilisib (first compound 0.06325 µM), 0.472; with Lapatinib + Pictilisib (first compound 0.2 µM) it was 0.526; in the test with Lapatinib + Pictilisib (first compound 0.6325 µM), 0.613; with Lapatinib + Pictilisib (first compound 2 µM) it was 0.596.

For the origin of these results see the supplement of paper PMC10307832.
